Source: PubChem BioAssay AID2060489 (Molecular Pharmacology Branch, DTP, NCI, 2025)
Values belong to the compound of their own block, whether it stands above or below them.

Test system: 922993-354-T-J3-PDC complex spheroids, viability
Assay: Anticancer human tumor 922993-354-T-J3-PDC patient-derived endometrial carcinoma cell line growth inhibition [GQUAD]
Conditions: for IC50: curve of first compound; for viability, T/C: stronger effect = lower value
Method in brief: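 Tumor cells were grown as complex spheroids with HUVEC endothelial cells and mesenchymal stem cells as stroma. G-quadruplex stabilizers were combined with targeted agents over half-log dilutions from near the clinical Cmax, or from 10 microM.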

[1] = second compound 0.0316 µM, first compound 0.0316 µM
[2] = second compound 0.0316 µM, first compound 0.316 µM
[3] = second compound 0.1 µM, first compound 0.0316 µM
[4] = second compound 0.1 µM, first compound 0.316 µM
[5] = second compound 0.316 µM, first compound 0.0316 µM
[6] = second compound 0.316 µM, first compound 0.316 µM
[7] = second compound 1 µM, first compound 0.0316 µM
[8] = second compound 1 µM, first compound 0.316 µM
[9] = second compound 3.16 µM, first compound 0.0316 µM
[10] = second compound 3.16 µM, first compound 0.316 µM
[11] = second compound 10 µM, first compound 0.0316 µM
[12] = second compound 10 µM, first compound 0.316 µM
[13] = second compound 0.0316 µM, first compound 0.1 µM
[14] = second compound 0.0316 µM, first compound 1 µM
[15] = second compound 0.0316 µM, first compound 3.16 µM
[16] = second compound 0.0316 µM, first compound 10 µM
[17] = second compound 0.1 µM, first compound 0.1 µM
[18] = second compound 0.1 µM, first compound 1 µM
[19] = second compound 0.1 µM, first compound 3.16 µM
[20] = second compound 0.1 µM, first compound 10 µM
[21] = second compound 0.316 µM, first compound 0.1 µM
[22] = second compound 0.316 µM, first compound 1 µM
[23] = second compound 0.316 µM, first compound 3.16 µM
[24] = second compound 0.316 µM, first compound 10 µM
[25] = second compound 1 µM, first compound 0.1 µM
[26] = second compound 1 µM, first compound 1 µM
[27] = second compound 1 µM, first compound 3.16 µM
[28] = second compound 1 µM, first compound 10 µM
[29] = second compound 3.16 µM, first compound 0.1 µM
[30] = second compound 3.16 µM, first compound 1 µM
[31] = second compound 3.16 µM, first compound 3.16 µM
[32] = second compound 3.16 µM, first compound 10 µM
[33] = second compound 10 µM, first compound 0.1 µM
[34] = second compound 10 µM, first compound 1 µM
[35] = second compound 10 µM, first compound 3.16 µM
[36] = second compound 10 µM, first compound 10 µM
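Note: spheroids exposed to compounds for seven days.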
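Throughout, for viability, T/C: 100% = DMSO vehicle control viability.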

IC50 (second compound 0.0316 µM): > 316 nM | IC50 (second compound 0.1 µM): 71.7 nM | IC50 (second compound 0.316 µM): 7.19 nM | IC50 (second compound 1 µM): < 0.999 nM | IC50 (second compound 3.16 µM): < 0.999 nM | IC50 (second compound 10 µM): < 0.999 nM
Structure (SMILES): Cn1ncnc1[C@H]1c2n[nH]c(=O)c3cc(F)cc(c23)N[C@@H]1c1ccc(F)cc1 + Cc1cnc(CNC(=O)c2c(=O)c3ccc(N4CCCN(C)CC4)nc3n3c2sc2ccccc23)cn1
viability, T/C (second compound 0.0316 µM, first compound 0.000999 µM): 93.2% | viability, T/C (second compound 0.0316 µM, first compound 0.00316 µM): 78.7% | viability, T/C (second compound 0.0316 µM, first compound 0.00999 µM): 76.6% | viability, T/C [1]: 72.8% | viability, T/C (second compound 0.0316 µM, first compound 0.0999 µM): 72.3% | viability, T/C [2]: 59.9% | viability, T/C (second compound 0.1 µM, first compound 0.000999 µM): 65.4% | viability, T/C (second compound 0.1 µM, first compound 0.00316 µM): 69.2% | viability, T/C (second compound 0.1 µM, first compound 0.00999 µM): 58.3% | viability, T/C [3]: 50.7% | viability, T/C (second compound 0.1 µM, first compound 0.0999 µM): 52.2% | viability, T/C [4]: 39.3% | viability, T/C (second compound 0.316 µM, first compound 0.000999 µM): 43.5% | viability, T/C (second compound 0.316 µM, first compound 0.00316 µM): 54.2% | viability, T/C (second compound 0.316 µM, first compound 0.00999 µM): 55.6% | viability, T/C [5]: 44.2% | viability, T/C (second compound 0.316 µM, first compound 0.0999 µM): 41.6% | viability, T/C [6]: 32% | viability, T/C (second compound 1 µM, first compound 0.000999 µM): 49.2% | viability, T/C (second compound 1 µM, first compound 0.00316 µM): 53.4% | viability, T/C (second compound 1 µM, first compound 0.00999 µM): 45.9% | viability, T/C [7]: 49.9% | viability, T/C (second compound 1 µM, first compound 0.0999 µM): 50.3% | viability, T/C [8]: 49.6% | viability, T/C (second compound 3.16 µM, first compound 0.000999 µM): 41.9% | viability, T/C (second compound 3.16 µM, first compound 0.00316 µM): 50.1% | viability, T/C (second compound 3.16 µM, first compound 0.00999 µM): 44% | viability, T/C [9]: 49.5% | viability, T/C (second compound 3.16 µM, first compound 0.0999 µM): 49.4% | viability, T/C [10]: 37.2% | viability, T/C (second compound 10 µM, first compound 0.000999 µM): 49% | viability, T/C (second compound 10 µM, first compound 0.00316 µM): 43.6% | viability, T/C (second compound 10 µM, first compound 0.00999 µM): 48.4% | viability, T/C [11]: 49% | viability, T/C (second compound 10 µM, first compound 0.0999 µM): 49.3% | viability, T/C [12]: 41.6%

IC50 (second compound 0.0316 µM): 8750 nM | IC50 (second compound 0.1 µM): 9750 nM | IC50 (second compound 0.316 µM): < 31.6 nM | IC50 (second compound 1 µM): < 31.6 nM | IC50 (second compound 3.16 µM): < 31.6 nM | IC50 (second compound 10 µM): < 31.6 nM
Structure (SMILES): CC(=O)O[C@H]1C(=O)[C@@]2(C)[C@H]([C@H](OC(=O)c3ccccc3)[C@]3(O)C[C@H](OC(=O)[C@H](O)[C@@H](NC(=O)c4ccccc4)c4ccccc4)C(C)=C1C3(C)C)[C@]1(OC(C)=O)CO[C@@H]1C[C@@H]2O + Cc1cnc(CNC(=O)c2c(=O)c3ccc(N4CCCN(C)CC4)nc3n3c2sc2ccccc23)cn1
viability, T/C [1]: 84.5% | viability, T/C [13]: 79.3% | viability, T/C [2]: 97.9% | viability, T/C [14]: 83% | viability, T/C [15]: 70.7% | viability, T/C [16]: 47.3% | viability, T/C [3]: 59.2% | viability, T/C [17]: 86.9% | viability, T/C [4]: 71.6% | viability, T/C [18]: 59.3% | viability, T/C [19]: 74.3% | viability, T/C [20]: 49.5% | viability, T/C [5]: 54.5% | viability, T/C [21]: 49.6% | viability, T/C [6]: 43.3% | viability, T/C [22]: 52.7% | viability, T/C [23]: 73.5% | viability, T/C [24]: 53.3% | viability, T/C [7]: 42.8% | viability, T/C [25]: 58% | viability, T/C [8]: 51.3% | viability, T/C [26]: 46.5% | viability, T/C [27]: 53% | viability, T/C [28]: 46% | viability, T/C [9]: 44.1% | viability, T/C [29]: 50.6% | viability, T/C [10]: 45.9% | viability, T/C [30]: 45.1% | viability, T/C [31]: 67.6% | viability, T/C [32]: 60.3% | viability, T/C [11]: 48.1% | viability, T/C [33]: 45.4% | viability, T/C [12]: 40.8% | viability, T/C [34]: 40.2% | viability, T/C [35]: 46.5% | viability, T/C [36]: 46.4%

IC50 (second compound 0.0316 µM): 214 nM | IC50 (second compound 0.1 µM): 86.1 nM | IC50 (second compound 0.316 µM): < 31.6 nM | IC50 (second compound 1 µM): < 31.6 nM | IC50 (second compound 3.16 µM): < 31.6 nM | IC50 (second compound 10 µM): < 31.6 nM
Structure (SMILES): CC1COCCN1c1cc(C2(O)CC3CCC(C2)O3)c2cnn(-c3ccn[nH]3)c2n1 (stereo unspecified) + Cc1cnc(CNC(=O)c2c(=O)c3ccc(N4CCCN(C)CC4)nc3n3c2sc2ccccc23)cn1
viability, T/C [1]: 79.9% | viability, T/C [13]: 64.3% | viability, T/C [2]: 40.1% | viability, T/C [14]: 32.2% | viability, T/C [15]: 28.6% | viability, T/C [16]: 18.2% | viability, T/C [3]: 68.8% | viability, T/C [17]: 43.1% | viability, T/C [4]: 40.9% | viability, T/C [18]: 21% | viability, T/C [19]: 26.6% | viability, T/C [20]: 16.5% | viability, T/C [5]: 47.4% | viability, T/C [21]: 46.2% | viability, T/C [6]: 37.1% | viability, T/C [22]: 23.1% | viability, T/C [23]: 22.1% | viability, T/C [24]: 12.5% | viability, T/C [7]: 46.2% | viability, T/C [25]: 43.1% | viability, T/C [8]: 50.8% | viability, T/C [26]: 34.2% | viability, T/C [27]: 23.3% | viability, T/C [28]: 4.13% | viability, T/C [9]: 44.8% | viability, T/C [29]: 44.2% | viability, T/C [10]: 45.2% | viability, T/C [30]: 29.4% | viability, T/C [31]: 3.29% | viability, T/C [32]: 0.13% | viability, T/C [11]: 45.5% | viability, T/C [33]: 37.9% | viability, T/C [12]: 31.4% | viability, T/C [34]: 14.6% | viability, T/C [35]: 0.21% | viability, T/C [36]: 0.2%
